How the values were obtained:
rat lung ECE = target: T1, rat lung ECE (Rattus norvegicus, UniProt P42893); assay: ECE inhibitory activity (rat lung ECE, conversion of human big ET-1 to ET-1, sandwich enzyme immunoassay); format: biochemical; details: rat lung ECE 10 µg, human big ET-1 0.8µg, 37°C, one hour
T1 construct: The solution was ultracentrifuged to obtain a supernatant, which can be used as the rat lung ECE; from tissue; host or cells: rat lung
T1 sequence (P42893 1-762): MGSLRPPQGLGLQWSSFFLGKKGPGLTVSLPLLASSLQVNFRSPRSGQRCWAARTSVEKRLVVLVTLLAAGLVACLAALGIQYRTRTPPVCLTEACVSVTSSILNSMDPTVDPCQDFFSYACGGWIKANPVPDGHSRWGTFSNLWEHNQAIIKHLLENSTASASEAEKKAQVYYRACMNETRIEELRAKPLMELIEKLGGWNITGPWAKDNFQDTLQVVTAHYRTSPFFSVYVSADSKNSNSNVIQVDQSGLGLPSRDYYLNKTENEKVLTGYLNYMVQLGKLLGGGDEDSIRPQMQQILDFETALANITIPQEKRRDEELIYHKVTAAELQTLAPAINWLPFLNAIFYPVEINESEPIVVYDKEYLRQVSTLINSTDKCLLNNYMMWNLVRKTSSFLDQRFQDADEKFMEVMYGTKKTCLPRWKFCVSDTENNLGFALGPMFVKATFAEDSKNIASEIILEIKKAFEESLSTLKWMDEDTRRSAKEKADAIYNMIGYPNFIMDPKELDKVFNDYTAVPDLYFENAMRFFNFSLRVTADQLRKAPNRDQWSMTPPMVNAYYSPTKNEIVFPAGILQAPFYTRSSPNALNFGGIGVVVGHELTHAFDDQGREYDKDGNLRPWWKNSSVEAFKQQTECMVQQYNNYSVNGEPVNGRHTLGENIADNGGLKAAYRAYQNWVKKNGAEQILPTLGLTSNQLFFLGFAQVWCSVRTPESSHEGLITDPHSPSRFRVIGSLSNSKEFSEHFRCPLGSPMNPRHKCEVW
Experimental: Preparation of rat lung ECE and measurement of ECE inhibitory activity
Rat lung tissue was homogenized with a homogenizer in ice-cold 20 mM Tris-HCl buffer (pH7.5) containing 5 mM magnesium chloride, 1 mM phenylmethylsulfonyl fluoride (PMSF), 20 µM pepstatin A, and 20 µM leupeptin. The homogenate was centrifuged at 800 x G, and the supernatant was ultracentrifuged at 100,000 x G. Then, the procedures in which the resulting pellet was resuspended in the above buffer and ultracentrifuged as shown above, were repeated further twice so that plasma components and the like were removed. The resulting pellet was suspended, homogenized with a glass homogenizer, and ultracentrifuged. The resulting pellet was solubilized in 0.5% Triton X- 100. The solution was ultracentrifuged to obtain a supernatant, which can be used as the rat lung ECE. Each test compound and the rat lung ECE (10 µg) were preincubated at 37°C for 15 minutes in a 100mM Tris-HCl buffer (pH7.0) containing 1mM NEM, 100µM leupeptin, and 20µM pepstatin A, and then human big ET-1 (0.8µg) was added thereto (totally 200µl), and the mixture was incubated at 37°C for one hour.
The reaction was stopped by the addition of EDTA to give a final concentration of 1mM. ECE activities were determined to quantify the produced ET-1 by the ET-1 specific sandwich enzyme immunoassay method.
ECE inhibitory activities of the test compounds were evaluated by determination of the ECE activities in the presence or absence of the test compounds.

ECE = target: T2, ECE (Rattus norvegicus, UniProt P42893); assay: Effect on the change in blood pressure induced by big ET-1 in anesthetized rats (ECE inhibition in vivo); design: species or system Male SD rat; details: for Increase in systolic pressure: 15 minutes before big ET-1 (1nmol/kg i.v.), vehicle group 96 ± 4
T2 construct: from tissue; host or cells: whole anesthetized male SD rat (in vivo)
T2 sequence (P42893 1-762): T1 sequence (P42893 1-762)
Experimental: Test 2 Effect on the change in blood pressure induced by big ET-1 in rats
Male SD rat (body weight 230∼280g) was anesthetized with sodium thiobarbiturate (65mg/kg, i.p.) and fixed on a warming surgical bed, and the right femoral artery and the vein were cannulated for measurement of arterial blood pressure and for injection of test compounds, respectively. The ganglia were blocked by intraperitoneal administration of pentolinium (10mg/kg). After stabilization of blood pressure for about 10 minutes, test compound or its vehicle (polyethylene glycol 400) was administered intravenously (0.5ml/kg). Fifteen minutes later, the big ET-1 (1nmol/kg) was administered intravenously. ECE inhibitory activities of the test compounds in vivo shown by an index of the change in blood pressure induced by big ET-1 were evaluated by inhibitory ratio to that of the vehicle group.

endopeptidase = assay: Inhibitory activity against metalloproteases other than ECE (endopeptidase); format: biochemical; details: at 10^-5M
Excerpt: (§1) The inhibitory activity of the compound of Preparation 1 against metalloproteases other than ECE, such as endopeptidase, stromelissin, and the like, are under 20% at 10^-5M, and therefore, the compound is highly specific to ECE.

stromelissin = stromelissin (Homo sapiens, UniProt P08254); assay: Inhibitory activity against metalloproteases other than ECE (stromelissin); format: biochemical; details: at 10^-5M
Excerpt: as §1

Sequence of stromelissin (P08254 100-477): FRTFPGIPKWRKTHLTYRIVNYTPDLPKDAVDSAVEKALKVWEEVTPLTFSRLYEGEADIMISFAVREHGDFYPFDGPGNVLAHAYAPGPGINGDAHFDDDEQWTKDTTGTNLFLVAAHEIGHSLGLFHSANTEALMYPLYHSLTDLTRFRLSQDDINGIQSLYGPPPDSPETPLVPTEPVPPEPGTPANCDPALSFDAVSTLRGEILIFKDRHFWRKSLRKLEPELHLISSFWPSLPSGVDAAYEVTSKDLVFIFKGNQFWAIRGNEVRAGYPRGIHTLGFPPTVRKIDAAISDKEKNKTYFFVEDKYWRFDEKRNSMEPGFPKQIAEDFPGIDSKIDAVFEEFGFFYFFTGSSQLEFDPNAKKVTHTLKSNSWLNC

| SMILES | IC50 (rat lung ECE) | Big ET-1-induced increasing in blood pressure (ECE; 3 and 10mg/kg intravenously) | Increase in systolic pressure (ECE; Dose 3 mg/kg intravenously) | Increase in systolic pressure (ECE; Dose 10 mg/kg intravenously) | inhibitory activity (endopeptidase) | inhibition at 10 µM (stromelissin) |
| --- | --- | --- | --- | --- | --- | --- |
| Cc1ccc(S(=O)(=O)NC(=O)Nc2c(C#N)cnn2C2CCCCC2)cc1 [Example 4, 4-cyano-1-cyclohexyl-5-{3-(4-toluenesulfonyl)ureido}-(1H)-pyrazole] | 290 nM |  |  |  |  |  |
| Cc1nn(-c2ccccc2)c(NC(=O)NS(=O)(=O)c2ccc(Cl)cc2)c1C#N [Example 37, 4-cyano-3-methyl-1-phenyl-5-{3-(4-chlorobenzenesulfonyl)ureido}-(1H)-pyrazole] | 45 nM | apparently inhibited | 65 ± 8 mmHg | 34 ± 6 mmHg |  |  |
| Cc1ccc(S(=O)(=O)NC(=O)Nc2c(C#N)cnn2-c2ccccc2)cc1 [Preparation 1, 4-cyano-1-phenyl-5-{3-(4-toluenesulfonyl)ureido}-(1H)-pyrazole] | 4600 nM |  |  |  | under 20% | < 20% |

Source: EP0885890A1, “SULFONYLUREIDOPYRAZOLE DERIVATIVES” (SUMITOMO PHARMACEUTICALS COMPANY, LIMITED, priority 1996, dated 1997)
